Experimental data published in patent publication US7635706B2, “5HT4-antagonistic 4-(aminomethyl)-piperidine benzamides” (Janssen Pharmaceutica NV, priority 2003, dated 2009).

Molecular target: T1, h5-HT4b (Homo sapiens, UniProt Q13639)
T1 construct: expressed in transfected cells; host or cells: HEK 293 (clone 9), membrane preparation
Test: 5HT4 antagonism: [3H]GR113808 binding to membranes of h5-HT4b-HEK 293 clone 9 cells
Settings: [3H]GR113808 0.1 nM, h5-HT4b-HEK 293 membranes, 30 min at 25° C.
Procedure: h5-HT4b-HEK 293 clone 9 cells were cultured in 150 mm Petri dishes and washed twice with cold PBS. The cells were then scraped from the plates and suspended in 50 mM Tris-HCl buffer, pH 7.4 and harvested by centrifugation at 23,500 rpm for 10 minutes. The pellet was resuspended in 5 mM Tris-HCl, pH 7.4 and homogenized with an Ultra Turrax homogenizer. The membranes were collected by centrifugation at 30,000 rpm for 20 min, resuspended in 50 mM Tris-HCl pH 7.4 and stored at −80° C. For the experiment, assay mixtures (0.5 ml) contained 50 μl of the tritiated ligand (5-HT4 antagonist [^3H]GR113808 0.1 nM) and 0.4 ml membrane preparation (15 μg protein/ml). 50 μl of 10% DMSO was added for total binding. 50 μl of 1 μM of (+)-trans-(1-butyl-3-hydroxy4-piperidinyl)methyl 8-amino-7-chloro-2,3-dihydro-1,4-benzodioxin-5-carboxylate (a proprietary 5HT4 agonist of Janssen Pharmaceutica) was added for determination of non-specific binding.
The [^3H]GR113808 assay buffer was 50 mM HEPES-NaOH, pH 7.4. The mixtures were incubated for 30 min at 25° C. The incubation was terminated by filtration over a Unifilter 96 GF/B presoaked in 0.1% polyethylenimine, followed by six washing steps with 50 mM HEPES-NaOH, pH 7.4.

T1 sequence (Q13639 whole entry): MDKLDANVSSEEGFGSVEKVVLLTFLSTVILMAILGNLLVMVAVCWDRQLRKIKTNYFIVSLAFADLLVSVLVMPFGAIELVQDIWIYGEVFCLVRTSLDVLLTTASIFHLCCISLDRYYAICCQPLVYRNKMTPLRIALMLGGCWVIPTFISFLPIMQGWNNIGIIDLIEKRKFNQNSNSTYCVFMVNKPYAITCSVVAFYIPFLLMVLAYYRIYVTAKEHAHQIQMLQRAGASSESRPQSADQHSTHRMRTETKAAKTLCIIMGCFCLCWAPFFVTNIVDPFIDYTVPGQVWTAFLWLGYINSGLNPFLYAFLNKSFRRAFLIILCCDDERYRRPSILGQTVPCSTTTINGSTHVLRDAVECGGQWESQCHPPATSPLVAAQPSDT

SMILES	IC50
Cc1ccc(C(=O)NC[C@@H]2CCN(CCCO)C[C@H]2O)c2c1OCCCO2 [compound 3]	1.7 nM
CNCCCCN1CC[C@@H](CNC(=O)c2ccc(C)c3c2OCCCO3)[C@H](O)C1 [compound 4]	6.92 nM
N#CCCCN1CC[C@@H](CNC(=O)c2cc(Cl)c(Br)c3c2OCCCO3)[C@H](O)C1 [compound 10]	3.02 nM
COc1c(Cl)cc(C(=O)NC[C@@H]2CCNC[C@H]2O)c2c1OCCCO2 [compound 12]	43.7 nM
COCCCN1CC[C@@H](CNC(=O)c2cc(Cl)c(OC)c3c2OCCCO3)[C@H](O)C1 [compound 14]	2.63 nM
COc1c(Cl)cc(C(=O)NC[C@@H]2CCN(CCOCCO)C[C@H]2O)c2c1OCCO2 [compound 15]	9.55 nM
O=C(NC[C@@H]1CCN(CCCO)C[C@H]1O)c1cc(Cl)c(Cl)c2c1OCCCO2 [compound 19]	2.69 nM
O=C(NC[C@@H]1CCNC[C@H]1O)c1cc(Cl)c(Cl)c2c1OCCCO2 [compound 20]	3.63 nM
O=C(NC[C@@H]1CCN(CCOCCO)C[C@H]1O)c1cc(Cl)c(Cl)c2c1OCCCO2 [compound 21]	3.89 nM
CCCCN1CC[C@@H](CNC(=O)c2cc(Cl)c(Br)c3c2OCCCO3)[C@H](O)C1 [compound 22]	1.41 nM
O=C(NC[C@@H]1CCN(CCCO)C[C@H]1O)c1cc(Cl)c(Br)c2c1OCCCO2 [compound 24]	1.78 nM
O=C(NC[C@@H]1CCN(CCOCCO)C[C@H]1O)c1cc(Cl)c(Br)c2c1OCCCO2 [compound 25]	3.09 nM
O=C(NC[C@@H]1CCN(CC2OCCO2)C[C@H]1O)c1cc(Cl)c(Br)c2c1OCCCO2 [compound 26]	6.31 nM
COc1c(Cl)cc(C(=O)NC[C@@H]2CCN(CCC3OCCO3)C[C@H]2O)c2c1OCCCO2 [compound 29]	6.46 nM
COc1c(Cl)cc(C(=O)NC[C@@H]2CCN(CCCC#N)C[C@H]2O)c2c1OCCO2 [compound 30]	12.6 nM
COc1c(Cl)cc(C(=O)NC[C@@H]2CCN(CCC3OCCO3)C[C@H]2O)c2c1OCCO2 [compound 31]	7.08 nM
CO[C@@H]1CNCC[C@H]1CNC(=O)c1cc(Cl)c(Br)c2c1OCCCO2 [compound 35]	23.4 nM
CNCCCN1CC[C@@H](CNC(=O)c2cc(Cl)c(OC)c3c2OCCCO3)[C@H](O)C1 [compound 36]	38 nM
COCCCN1CC[C@@H](CNC(=O)c2cc(Cl)c(Cl)c3c2OCCCO3)[C@H](O)C1 [compound 37]	3.89 nM
COCCCN1CC[C@@H](CNC(=O)c2cc(Cl)c(Br)c3c2OCCCO3)[C@H](O)C1 [compound 38]	2.95 nM
O=C(NC[C@@H]1CCN(CC2CCCO2)C[C@H]1O)c1cc(Cl)c(Br)c2c1OCCCO2 (stereo partly shown) [compound 39]	3.89 nM
CNCCCCN1CC[C@@H](CNC(=O)c2cc(Cl)c(OC)c3c2OCCCO3)[C@H](O)C1 [compound 40]	14.1 nM

SMILES	IC50
COc1c(Cl)cc(C(=O)NC[C@@H]2CCN(CC3CCCO3)C[C@H]2OC)c2c1OCCO2 (stereo partly shown) [compound 41]	16.2 nM
CNCCN1CC[C@@H](CNC(=O)c2cc(Cl)c(Br)c3c2OCCCO3)[C@H](O)C1 [compound 42]	27.5 nM
CNCCCCN1CC[C@@H](CNC(=O)c2cc(Cl)c(OC)c3c2OCCO3)[C@H](O)C1 [compound 43]	23.4 nM
CNCCCN1CC[C@@H](CNC(=O)c2cc(Cl)c(OC)c3c2OCCO3)[C@H](O)C1 [compound 44]	28.8 nM
CO[C@@H]1CN(CCCO)CC[C@H]1CNC(=O)c1cc(Cl)c(Br)c2c1OCCCO2 [compound 45]	7.41 nM
CO[C@@H]1CN(CCC2OCCO2)CC[C@H]1CNC(=O)c1cc(Cl)c(Br)c2c1OCCCO2 [compound 46]	6.03 nM
COc1c(Cl)cc(C(=O)NC[C@@H]2CCN(CCCO)C[C@H]2OC)c2c1OCCO2 [compound 53]	20 nM
CO[C@@H]1CN(CCCC#N)CC[C@H]1CNC(=O)c1cc(Cl)c(Cl)c2c1OCCCO2 [compound 56]	3.89 nM
COc1c(Cl)cc(C(=O)NC[C@@H]2CCN(CCCO)C[C@H]2OC)c2c1OCCCO2 [compound 57]	36.3 nM
CCCCN1CC[C@@H](CNC(=O)c2cc(Cl)c(Br)c3c2OCCCO3)[C@H](OC)C1 [compound 58]	2.34 nM
COCCCN1CC[C@@H](CNC(=O)c2cc(Cl)c(Cl)c3c2OCCCO3)[C@H](OC)C1 [compound 59]	3.72 nM
COc1c(Cl)cc(C(=O)NC[C@@H]2CCN(CCn3ccn(C(C)C)c3=O)C[C@H]2O)c2c1OCCO2 [compound 60]	35.5 nM
CNCCCCN1CC[C@@H](CNC(=O)c2cc(Cl)c(OC)c3c2OCCCO3)[C@H](OC)C1 [compound 61]	85.1 nM
CNCCCN1CC[C@@H](CNC(=O)c2cc(Cl)c(OC)c3c2OCCCO3)[C@H](OC)C1 [compound 62]	490 nM
CNCCCCN1CC[C@@H](CNC(=O)c2cc(Cl)c(Br)c3c2OCCCO3)[C@H](O)C1 [compound 64]	1.55 nM
COc1c(Cl)cc(C(=O)NC[C@@H]2CCN(CC3OCCO3)C[C@H]2OC)c2c1OCCCO2 [compound 66]	132 nM
COCCCN1CC[C@@H](CNC(=O)c2cc(Cl)c(OC)c3c2OCCCO3)[C@H](OC)C1 [compound 67]	22.4 nM
COc1c(Cl)cc(C(=O)NC[C@@H]2CCN(CCOCCO)C[C@H]2OC)c2c1OCCCO2 [compound 68]	93.3 nM
COc1c(Cl)cc(C(=O)NC[C@@H]2CCN(CCCC#N)C[C@H]2OC)c2c1OCCCO2 [compound 69]	79.4 nM
COc1c(Cl)cc(C(=O)NC[C@@H]2CCN(CCC3OCCO3)C[C@H]2OC)c2c1OCCCO2 [compound 72]	21.4 nM
CO[C@@H]1CN(CCCO)CC[C@H]1CNC(=O)c1cc(Cl)c(Cl)c2c1OCCCO2 [compound 75]	3.09 nM

Second part, the compound after the results:

IC50	SMILES
5.5 nM	COc1c(Cl)cc(C(=O)NC[C@@H]2CCN(CCCO)C[C@H]2O)c2c1OCCO2 [compound 5]
6.46 nM	COCCCN1CC[C@@H](CNC(=O)c2cc(Cl)c(OC)c3c2OCCO3)[C@H](O)C1 [compound 6]
77.6 nM	COc1c(Cl)cc(C(=O)NC[C@@H]2CCNC[C@H]2O)c2c1OCCO2 [compound 8]
7.94 nM	COc1c(Cl)cc(C(=O)NC[C@@H]2CCN(CC3OCCO3)C[C@H]2O)c2c1OCCO2 [compound 9]
5.89 nM	O=C(NC[C@@H]1CCNC[C@H]1O)c1cc(Cl)c(Br)c2c1OCCCO2 [compound 11]
5.37 nM	COc1c(Cl)cc(C(=O)NC[C@@H]2CCN(CCCO)C[C@H]2O)c2c1OCCCO2 [compound 13]
3.8 nM	CCCCN1CC[C@@H](CNC(=O)c2cc(Cl)c(OC)c3c2OCCCO3)[C@H](O)C1 [compound 17]
24 nM	COc1c(Cl)cc(C(=O)NC[C@@H]2CCN(CC3OCCO3)C[C@H]2O)c2c1OCCCO2 [compound 18]
17.4 nM	COc1c(Cl)cc(C(=O)NC[C@@H]2CCN(CCOCCO)C[C@H]2O)c2c1OCCCO2 [compound 23]
4.9 nM	O=C(NC[C@@H]1CCN(CCC2OCCO2)C[C@H]1O)c1cc(Cl)c(Br)c2c1OCCCO2 [compound 27]
6.31 nM	CO[C@@H]1CN(CCCC#N)CC[C@H]1CNC(=O)c1cc(Cl)c(Br)c2c1OCCCO2 [compound 28]
8.71 nM	COc1c(Cl)cc(C(=O)NC[C@@H]2CCN(CC3CCCO3)C[C@H]2O)c2c1OCCO2 (stereo partly shown) [compound 32]
1.2 nM	COc1c(Cl)cc(C(=O)NC[C@@H]2CCN(CC3CCCO3)C[C@H]2O)c2c1OCCCO2 (stereo partly shown) [compound 33]
1 nM	COc1c(Cl)cc(C(=O)NC[C@@H]2CCN(CCCC#N)C[C@H]2O)c2c1OCCCO2 [compound 34]
57.5 nM	CNCCN1CC[C@@H](CNC(=O)c2cc(Cl)c(Br)c3c2OCCCO3)[C@H](OC)C1 [compound 48]
8.13 nM	CO[C@@H]1CNCC[C@H]1CNC(=O)c1cc(Cl)c(Cl)c2c1OCCCO2 [compound 49]
4.37 nM	CO[C@@H]1CN(CC2CCCO2)CC[C@H]1CNC(=O)c1cc(Cl)c(Br)c2c1OCCCO2 (stereo partly shown) [compound 50]
5.13 nM	CO[C@@H]1CN(CCOCCO)CC[C@H]1CNC(=O)c1cc(Cl)c(Br)c2c1OCCCO2 [compound 51]
457 nM	COc1c(Cl)cc(C(=O)NC[C@@H]2CCNC[C@H]2OC)c2c1OCCO2 [compound 52]
4.9 nM	COCCCN1CC[C@@H](CNC(=O)c2cc(Cl)c(Br)c3c2OCCCO3)[C@H](OC)C1 [compound 54]
166 nM	COc1c(Cl)cc(C(=O)NC[C@@H]2CCN(CCOCCO)C[C@H]2OC)c2c1OCCO2 [compound 55]
9.77 nM	CNCCCN1CC[C@@H](CNC(=O)c2cc(Cl)c(Br)c3c2OCCCO3)[C@H](OC)C1 [compound 63]
4.47 nM	CNCCCCN1CC[C@@H](CNC(=O)c2cc(Cl)c(Br)c3c2OCCCO3)[C@H](OC)C1 [compound 65]
263 nM	COc1c(Cl)cc(C(=O)NC[C@@H]2CCN(CCn3ccn(C(C)C)c3=O)C[C@H]2OC)c2c1OCCO2 [compound 70]
10.7 nM	CCCCN1CC[C@@H](CNC(=O)c2cc(Cl)c(OC)c3c2OCCCO3)[C@H](OC)C1 [compound 71]
18.2 nM	COc1c(Cl)cc(C(=O)NC[C@@H]2CCN(CC3CCCO3)C[C@H]2OC)c2c1OCCCO2 (stereo partly shown) [compound 73]
5.37 nM	CNCCCN1CC[C@@H](CNC(=O)c2cc(Cl)c(Cl)c3c2OCCCO3)[C@H](OC)C1 [compound 74]
